# Values of other authors, collected in patent US20250325691A1, “HER2-GST-SN-38 COMPLEX, AND PHARMACEUTICAL COMPOSITION COMPRISING SAME FOR PREVENTING OR TREATING PROLIFERATIVE DISEASES” (priority 2022, published 2025).
# Tested on: various cancer cells
# Settings: various cancer cells in vitro; cited from earlier work
structure (smiles),measurement,value
"CCc1c2c(nc3ccc(O)cc13)-c1cc3c(c(=O)n1C2)COC(=O)[C@]3(O)CC [SN-38, 7-ethyl-10-hydroxycamptothecin]","cytotoxic activity, times more potent than irinotecan","up to 1,000 times"
